# Literature values as cited in patent US20080200527A1, “Cannabinoid Receptor Modulators” (Carex SA, priority 2005, published 2008).
# Tested on: absorption of dietary fat
# Settings: in vivo
structure (smiles),measurement,value
CCCCCCCCCCC[C@@H](C[C@@H]1OC(=O)[C@H]1CCCCCC)OC(=O)[C@H](CC(C)C)NC=O [orlistat],block of the absorption of dietary fat,up to 30%
